Assay results taken from PMC5490407, “Chiral Derivatives of Xanthones: Investigation of the Effect of Enantioselectivity on Inhibition of Cyclooxygenases (COX-1 and COX-2) and Binding Interaction with Human Serum Albumin” (Pharmaceuticals, 2017).

How the values were obtained:
COX-1 = target: T1, COX-1 (Ovis aries, UniProt P05979); experiment: COX Inhibitor Screening Assay Kit, COX-1 inhibition; format: biochemical, ovine; conditions: CDXs 20 µmol/L; mean ± standard deviation, triplicate in two independent days
T1 construct: purchased Cayman Chemical
T1 sequence (P05979 25-600): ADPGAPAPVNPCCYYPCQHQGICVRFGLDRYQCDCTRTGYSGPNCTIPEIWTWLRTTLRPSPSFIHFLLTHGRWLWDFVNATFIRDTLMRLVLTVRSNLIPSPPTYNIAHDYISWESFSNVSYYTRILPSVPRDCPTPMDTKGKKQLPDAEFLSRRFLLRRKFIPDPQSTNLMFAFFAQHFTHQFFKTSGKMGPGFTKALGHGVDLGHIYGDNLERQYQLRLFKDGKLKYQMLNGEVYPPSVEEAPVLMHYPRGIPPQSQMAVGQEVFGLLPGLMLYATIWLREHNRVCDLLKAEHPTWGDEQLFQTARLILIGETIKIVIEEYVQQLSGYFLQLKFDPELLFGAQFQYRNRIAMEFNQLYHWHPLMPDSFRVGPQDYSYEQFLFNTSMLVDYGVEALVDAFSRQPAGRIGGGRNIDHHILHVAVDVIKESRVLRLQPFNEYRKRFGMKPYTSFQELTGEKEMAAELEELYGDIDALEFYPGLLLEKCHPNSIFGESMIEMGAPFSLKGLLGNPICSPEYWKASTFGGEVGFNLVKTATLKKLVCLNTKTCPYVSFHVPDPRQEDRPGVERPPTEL
Experimental: (§1) The effect of CDXs previously obtained in our group as inhibitors of membrane located enzymes that might be involved in inflammatory processes, namely COX-1 and COX-2, was evaluated. Three enantiomeric pairs of CDXs were chosen to study the inhibitory effect of both enantiomers of each pair face to biological targets in order to evaluate potency and enantioselectivity. The effect on COXs activity was studied by spectrofluorimetry using a commercial kit measuring the peroxidation activity of COXs. The kit includes isoenzyme-specific inhibitors for distinguishing COX-1 from COX-2 activities.
(§2) The evaluation of the inhibition of COX-1 and COX-2 by CDXs was conducted using the commercially available COX (ovine/human) Inhibitor Screening Assay Kit (Cayman Chemical, Michigan, MI, USA). Briefly, the assay implies an enzymatic immunoassay based on the competition between prostaglandins (PGs) and a PG-acetylcholinesterase (AChE) conjugate (PG tracer), which is then evaluated by the addition of Ellman’s reagent. All the solutions required for the experiment were prepared according to the manufacturer’s instructions. Each compound was analysed in two independent days, in triplicate. CDX working solutions were prepared in DMSO to a final concentration of 20 µM. […] Absorbance measurements at 412 nm were performed in a Synergy HT microplate reader (Bio-Tek Instruments, Winooski, VT, USA) operated with Gen5 software (Bio-Tek Instruments).

HSA = target: T2, HSA (Homo sapiens, UniProt P02768); experiment: Interaction with human serum albumin by fluorescence quenching; format: binding; conditions: for Ymax, maximum percentage of HSA fluorescence quenching / Kd: HSA 2 µM, pH 7.4, 25 °C; for Ymax, maximum percentage of HSA fluorescence quenching / Kd / ∆G Binding: mean ± standard deviation of triplicate runs; for Kd: read-out: Kd, dissociation constant of CDX-HSA; for ∆G Binding: HSA binding
T2 construct: purchased Sigma-Aldrich
T2 sequence (P02768 25-609): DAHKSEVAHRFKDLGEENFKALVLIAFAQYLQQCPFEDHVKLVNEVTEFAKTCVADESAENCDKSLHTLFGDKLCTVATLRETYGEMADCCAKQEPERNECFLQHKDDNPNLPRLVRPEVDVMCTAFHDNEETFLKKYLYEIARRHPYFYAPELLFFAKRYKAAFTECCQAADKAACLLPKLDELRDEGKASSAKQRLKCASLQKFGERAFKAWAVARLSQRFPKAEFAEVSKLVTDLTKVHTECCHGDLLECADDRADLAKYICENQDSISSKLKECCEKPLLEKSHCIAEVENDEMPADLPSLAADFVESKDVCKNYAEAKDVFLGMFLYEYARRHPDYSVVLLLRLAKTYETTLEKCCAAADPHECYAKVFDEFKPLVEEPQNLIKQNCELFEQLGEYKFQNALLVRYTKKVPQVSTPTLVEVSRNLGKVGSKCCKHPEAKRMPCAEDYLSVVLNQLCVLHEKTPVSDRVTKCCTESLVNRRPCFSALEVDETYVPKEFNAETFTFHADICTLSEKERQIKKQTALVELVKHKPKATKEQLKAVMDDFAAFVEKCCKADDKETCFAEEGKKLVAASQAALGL
Experimental: Evaluation of the binding of CDXs to HSA was based on the quenching of HSA intrinsic fluorescence. Phosphate buffer consisting of 7.5 mM Na2HPO4, 1.5 mM KH2PO4 and 140 mM NaCl (pH 7.4) was used in the preparation of CDX solutions. Solutions of HSA fraction V (Sigma-Aldrich, St. Louis, MO, USA) were prepared in water. Briefly, 500 µL of HSA (fixed final concentration 2 µM), increasing volumes of drug solution (n = 13, 0–200 µM) and phosphate buffer solution (pH 7.4) were mixed to a final volume of 1500 µL. The corresponding blank solutions were identically prepared and analysed in the absence of the drug. Fluorescence emission spectra were recorded in the range of 300–450 nm upon excitation at 295 nm. Excitation spectra were also recorded between 220 and 310 nm with emission set at 330 nm. For individual measurements, excitation and emission wavelength were set at 295 nm and 330 nm, respectively. For each measurement, fluorescence emission was automatically acquired during 180 s (5 nm bandwidth). For all compounds, UV-vis absorption spectra (200–500 nm) were recorded. These measurements were used to correct the fluorescence intensity values due to inner filter effects at the excitation wavelength. All experiments were performed at room temperature (25 ± 1 °C). Fluorescence and absorbance measurement were performed in a LS-50B spectrometer (Perkin Elmer, Waltham, MA, USA) and a V-660 spectrophotometer (Jasco, Easton, MD, USA) respectively.
HSA-CDX binding parameters were calculated using the Origin 8.5.1 software (8.5.1, Northampton, MA, USA). The fitting of the experimental values was made according to the Langmuir binding equation (Equation (1)) to calculate HSA binding parameters: (1) [HSA−CDX]=[HSA]/1+ Kd/[CDX] where [HSA], [CDX] and [HSA-CDX] are given in μM and Kd corresponds to the dissociation constant of HSA-CDX complexes.
In terms of fluorescence quenching mediated by the compound, the previous Langmuir isotherm can be rewritten as follows (Equation (2)):(2) %quenching=ymax^n/1+ Kd/[CDX] where ymax corresponds to the highest percentage of quenching induced by a given compound and n accounts for the number of biding sites of the enzyme to the CDX. Finally, free Gibbs energy (ΔG) was also determined for all the interactions.

COX-2 = target: T3, COX-2 (Homo sapiens, UniProt P35354); experiment: COX Inhibitor Screening Assay Kit, COX-2 inhibition; format: biochemical; conditions: for percentage of enzyme inhibition, COX-2: CDXs 20 µmol/L, mean ± standard deviation, triplicate in two independent days
T3 construct: purchased Cayman Chemical
T3 sequence (P35354 18-604): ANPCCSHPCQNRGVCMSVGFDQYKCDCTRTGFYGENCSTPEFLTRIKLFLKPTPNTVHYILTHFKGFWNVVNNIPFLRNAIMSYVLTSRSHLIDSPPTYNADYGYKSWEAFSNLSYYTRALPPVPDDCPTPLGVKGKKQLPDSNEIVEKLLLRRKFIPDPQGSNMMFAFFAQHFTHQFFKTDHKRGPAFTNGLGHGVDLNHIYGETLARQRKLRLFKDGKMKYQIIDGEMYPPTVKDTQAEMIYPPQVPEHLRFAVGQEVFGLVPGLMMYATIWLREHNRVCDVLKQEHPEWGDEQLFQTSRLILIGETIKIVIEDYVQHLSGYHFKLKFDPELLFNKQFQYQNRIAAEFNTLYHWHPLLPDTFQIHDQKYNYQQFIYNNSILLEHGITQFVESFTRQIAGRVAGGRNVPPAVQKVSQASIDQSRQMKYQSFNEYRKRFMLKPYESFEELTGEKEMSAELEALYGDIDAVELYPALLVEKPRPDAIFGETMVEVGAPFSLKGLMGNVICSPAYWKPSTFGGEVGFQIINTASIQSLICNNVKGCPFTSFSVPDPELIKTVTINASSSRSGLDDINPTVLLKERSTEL
Experimental: as §1, §2

difference in HSA binding affinity between (S)- and (R)-enantiomers (HSA; (S)-enantiomer higher affinity than (R)-enantiomer) | SMILES | percentage of enzyme inhibition, COX-1 (COX-1) | Ymax, maximum percentage of HSA fluorescence quenching (HSA) | Kd (HSA) | percentage of enzyme inhibition, COX-2 (COX-2) | ∆G Binding (HSA) | enzyme-type selectivity COX-2 vs COX-1 (COX-2; paired t-test, p < 0.05)
– | COc1ccc2c(=O)c3cc(C(=O)N[C@@H](CO)c4ccccc4)ccc3oc2c1 [(R)-(+)-CDX1] | 79.6 ± 5.0% | 109.6 ± 1.6% | 61.8 ± 6.5 µM | 84.7 ± 5.7% | – | –
– | COc1ccc2c(=O)c3cc(C(=O)N[C@@H](CO)C(C)C)ccc3oc2c1 [(R)-(+)-CDX2] | 66.8 ± 1.6% | 108.2 ± 0.2% | 29.2 ± 0.9 µM | 73.2 ± 0.4% | -2.0 ± 0.1 kcal/mol | more active at inhibiting COX-2 than COX-1
– | COc1ccc2c(=O)c3cc(C(=O)N[C@H](C)CO)ccc3oc2c1 [(R)-(−)-CDX3] | 75.2 ± 9.0% | 113.2 ± 1.4% | 26.4 ± 1.2 µM | 75.1 ± 7.2% | – | –
– | COc1ccc2c(=O)c3cc(C(=O)N[C@@H](C)CO)ccc3oc2c1 [(S)-(+)-CDX3] | 91.7 ± 10.7% | 116.2 ± 0.6% | 31.4 ± 2 µM | 93.4 ± 11.4% | -2.0 ± 0.2 kcal/mol | –
– | COc1ccc2c(=O)c3cc(C(=O)N[C@H](CO)c4ccccc4)ccc3oc2c1 [(S)-(−)-CDX1] | 87.6 ± 2.1% | 105.3 ± 0.4% | 23.6 ± 0.8 µM | 80.1 ± 12.8% | – | –
– | COc1ccc2c(=O)c3cc(C(=O)N[C@H](CO)C(C)C)ccc3oc2c1 [(S)-(−)-CDX2] | 82.9 ± 5.2% | 107.4 ± 5.4% | 24.7 ± 1.1 µM | 85.7 ± 4.5% | – | –
ca. 2.6 fold | COc1ccc2c(=O)c3cc(C(=O)NC(CO)c4ccccc4)ccc3oc2c1 (stereo not shown) [CDX1] | – | – | – | – | – | –
